Results on two molecules are retold here after patent US7119256B2, “Gene encoding acetolactate synthase” (priority 2000, dated 2006).

Test [1] addresses mutant ALS protein (Oryza sativa subsp. japonica, UniProt Q6K2E8, S627I/W548L). Put plainly: Herbicide sensitivity of ALS partially purified from the resistant mutant (acetoin colorimetric ALS activity). The test is classed as biochemical, rice (Kinmaze). Details: from tissue; host or cells: resistant mutant rice (Kinmaze) cultured cells, liquid culture; ammonium sulfate, Sephadex G-25, HiTrap Q. The protocol:
(§1) First, 200 g or more of resistant mutant was prepared by a liquid culture method (no supplementation with bispyribac-sodium), the culture having a composition as shown in Table 1 but without Gelrite. Then, about 150 g of the resistant mutant was homogenized using Hiscotron in a volume of buffer-1 [100 mM potassium phosphate buffer (pH 7.5) containing 20% (v/v) glycerol, 0.5 mM thiamin pyrophosphate (TPP), 10 μM flavin adenine dinucleotide (FAD), 0.5 mM MgCl2, and a volume of polyvinyl polypyrrolidone one-tenth that of tissue volume] 3-fold greater than tissue volume. The homogenate was filtered through nylon gauze, and then centrifuged at 15,000×g for 20 min. Ammonium sulfate was added to the centrifuged supernatant to 50% saturation, and then allowed to stand in ice for approximately 1 hour. The mixture was again centrifuged at 15,000×g for 20 min, and then the precipitated fraction was dissolved in about 30 ml of buffer-2 [10 mM Tris hydrochloric acid buffer (pH 7.5) containing 20% (v/v) glycerol, 0.5 mM TPP and 0.5 mM MgCl2]. […]
(§2) Next, the protein concentration of the crude enzyme solution was measured by the Bradford method according to the manual of Bio-Rad Protein Assay. […]
(§3) ALS activity resulting from the mutant ALS protein contained in the eluted fractions apportioned into each test tube for apportion was measured as follows. A reaction solution to be used in a measurement reaction was prepared by mixing an eluted fraction to be measured with a solution comprising 20 mM sodium pyruvate, 0.5 mM TPP, 0.5 mM MgCl2, 10 μM FAD and 20 mM potassium phosphate buffer (pH 7.5). […] After the eluted fraction to be measured was added, the measurement reaction was performed at 30° C. for 40 to 60 min. […]
(§4) Then, to quantify acetoin contained in the reaction solution, 1 ml of 0.5% (w/v) creatine and 1 ml of 5% (w/v) α-naphthol dissolved in 2.5 N sodium hydroxide was added to the reaction solution, followed by incubation at 37° C. for 10 min. Acetoin was then quantified by color comparison of the absorbance (at 525 nm) of the reaction solution, thereby evaluating ALS activity. […]

The target of the next test is T1, wild type ALS protein (Oryza sativa subsp. japonica, UniProt Q6K2E8).
T1 sequence (Q6K2E8 44-644): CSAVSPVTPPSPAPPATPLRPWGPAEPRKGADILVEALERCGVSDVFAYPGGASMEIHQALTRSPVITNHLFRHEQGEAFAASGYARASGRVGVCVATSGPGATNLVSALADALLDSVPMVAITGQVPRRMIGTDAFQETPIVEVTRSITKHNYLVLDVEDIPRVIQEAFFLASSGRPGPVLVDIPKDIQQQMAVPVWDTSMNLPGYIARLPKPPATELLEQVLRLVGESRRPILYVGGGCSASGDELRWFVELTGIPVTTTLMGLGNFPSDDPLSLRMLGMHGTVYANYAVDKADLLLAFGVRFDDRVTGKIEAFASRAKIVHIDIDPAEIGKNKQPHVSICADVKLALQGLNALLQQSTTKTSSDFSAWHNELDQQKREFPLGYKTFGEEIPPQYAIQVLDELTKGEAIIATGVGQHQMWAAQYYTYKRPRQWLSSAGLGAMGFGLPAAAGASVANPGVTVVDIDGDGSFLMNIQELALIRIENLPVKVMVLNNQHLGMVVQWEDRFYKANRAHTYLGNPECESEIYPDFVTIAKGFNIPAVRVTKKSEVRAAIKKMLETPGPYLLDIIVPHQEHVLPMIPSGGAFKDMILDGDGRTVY
Put plainly: Herbicide sensitivity of partially purified wild type ALS protein (acetoin colorimetric ALS activity). The test is classed as biochemical, rice (Kinmaze). Details: the wild type ALS protein was separated and purified in the same manner and used for the experiment; from tissue; host or cells: wild type rice (Kinmaze) cultured cells, liquid culture; ammonium sulfate, Sephadex G-25, HiTrap Q.

For test [2], the system named is mutant ALS protein. The test can be described thus: Herbicide sensitivity of ALS partially purified from the resistant mutant (acetoin colorimetric ALS activity). The test is classed as biochemical, rice (Kinmaze). The protocol: as §1, §2, §3, §4
Another test has as its target T2, W548L mutant ALS (Oryza sativa subsp. japonica, UniProt Q6K2E8, W548L).
T2 construct: one type of cDNA containing a full length ALS gene could be obtained from a cDNA library derived from the wild type; made in house; host or cells: E. coli JM 109, pGEX-2T backbone (pGEX-2T-wALS); crude enzyme solution
Put plainly: Herbicide sensitivity of crude ALS with W548L mutation only, 1 mM valine. It counts as biochemical, rice. The note with it: crude enzyme. The protocol:
(§5) A plasmid having W548L mutant ALS gene or a plasmid having S627I mutant ALS gene was transformed into E. coli strain JM 109. The colonies obtained from transformation were subjected to liquid culture, expression of GST induction protein was induced in the same manner as in Examples 4 and 5, a crude enzyme solution was prepared, and then herbicide sensitivity of ALS was examined in the presence of 1 mM valine.

The next test concerns the target T3, S627I mutant ALS (Oryza sativa subsp. japonica, UniProt Q6K2E8, S627I).
T3 construct: one type of cDNA containing a full length ALS gene could be obtained from a cDNA library derived from the wild type; made in house; host or cells: E. coli JM 109, pGEX-2T backbone; crude enzyme solution
The test can be described thus: Herbicide sensitivity of crude ALS with S627I mutation only, 1 mM valine. The note with it: crude enzyme. The test is classed as biochemical, rice. Here is the method:
as §5

The target in a further test is T4, ALS isozyme I (Escherichia coli, UniProt P08142+P0ADF8).
T4 construct: CK1 (without plasmid); endogenous in cells
The test can be described thus: Inhibition by valine of ALS activity derived from E. coli (no plasmid). The test is classed as biochemical. Here is the method:
ALS activity resulting from the mutant ALS protein contained in the eluted fractions apportioned into each test tube for apportion was measured as follows. A reaction solution to be used in a measurement reaction was prepared by mixing an eluted fraction to be measured with a solution comprising 20 mM sodium pyruvate, 0.5 mM TPP, 0.5 mM MgCl2, 10 μM FAD and 20 mM potassium phosphate buffer (pH 7.5). One ml of this reaction solution was used. After the eluted fraction to be measured was added, the measurement reaction was performed at 30° C. for 40 to 60 min. Then, the reaction was stopped by addition of 0.1 ml of 6N sulfuric acid (or 0.25 N sodium hydroxide).
The prepared ALS enzyme contains ALS activity derived from E. coli.

Where [3] appears, read: 1 mM Valine, E. coli without plasmid.

“And” between values parts separate entries of the source, which are not always exact repeats. Equal entries are not always repeated.

T4 sequence (P0ADF8 whole entry): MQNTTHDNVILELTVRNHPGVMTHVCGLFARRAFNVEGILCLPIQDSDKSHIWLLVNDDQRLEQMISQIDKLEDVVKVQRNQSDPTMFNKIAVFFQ
T4 sequence (P08142 whole entry): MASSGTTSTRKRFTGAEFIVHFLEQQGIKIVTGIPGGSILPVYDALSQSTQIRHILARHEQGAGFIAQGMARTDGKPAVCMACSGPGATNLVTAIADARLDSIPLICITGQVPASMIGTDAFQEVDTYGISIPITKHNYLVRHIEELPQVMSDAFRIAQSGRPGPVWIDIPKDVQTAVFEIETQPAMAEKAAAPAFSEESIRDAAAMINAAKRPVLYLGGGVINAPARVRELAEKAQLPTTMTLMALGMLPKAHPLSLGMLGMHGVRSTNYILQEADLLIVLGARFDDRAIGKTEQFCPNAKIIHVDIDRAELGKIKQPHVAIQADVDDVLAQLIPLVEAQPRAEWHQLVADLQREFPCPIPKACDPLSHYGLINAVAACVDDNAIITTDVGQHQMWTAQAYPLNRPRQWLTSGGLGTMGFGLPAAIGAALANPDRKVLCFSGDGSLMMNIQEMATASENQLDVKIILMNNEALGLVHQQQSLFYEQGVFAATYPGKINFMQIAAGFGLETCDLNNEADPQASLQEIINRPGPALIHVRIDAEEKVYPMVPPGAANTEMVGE
T3 sequence (Q6K2E8 44-644 S627I): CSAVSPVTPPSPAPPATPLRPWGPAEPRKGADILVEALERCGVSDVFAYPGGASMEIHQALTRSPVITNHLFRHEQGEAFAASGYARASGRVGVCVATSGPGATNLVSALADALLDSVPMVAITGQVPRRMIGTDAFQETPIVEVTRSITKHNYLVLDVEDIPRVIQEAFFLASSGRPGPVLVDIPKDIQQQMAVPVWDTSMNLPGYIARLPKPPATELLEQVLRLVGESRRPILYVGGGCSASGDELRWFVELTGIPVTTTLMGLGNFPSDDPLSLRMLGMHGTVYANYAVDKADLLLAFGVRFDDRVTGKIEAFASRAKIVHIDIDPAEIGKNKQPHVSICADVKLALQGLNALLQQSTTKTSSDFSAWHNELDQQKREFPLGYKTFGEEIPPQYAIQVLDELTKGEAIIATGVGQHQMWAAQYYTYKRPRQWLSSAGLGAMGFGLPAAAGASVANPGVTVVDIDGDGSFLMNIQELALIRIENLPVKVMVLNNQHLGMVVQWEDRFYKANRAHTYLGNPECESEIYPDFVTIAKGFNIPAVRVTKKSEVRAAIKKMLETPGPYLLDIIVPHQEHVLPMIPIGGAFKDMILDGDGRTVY
Sequence of mutant ALS protein (Oryza sativa subsp. japonica, UniProt Q6K2E8, S627I/W548L) (Q6K2E8 44-644 W548L/S627I): as the sequence (Q6K2E8 44-644 S627I) above, with W505L counted along it
T2 sequence (Q6K2E8 44-644 W548L): as the sequence (Q6K2E8 44-644 S627I) above, with W505L, I584S counted along it

One may read the IC50 as the concentration that gives 50% inhibition. Higher therefore signals weaker potency. Take `CC(C)C1(C)N=C(c2nc3ccccc3cc2C(=O)O)NC1=O` (stereo not drawn) [Imazaquin, imazaquin]: the IC50 at mutant ALS protein [1] is 16.7 µM; on wild type ALS protein, 1.48 µM. The “RS ratio Resistant mutant: I50 (resistant mutant)/I50 (wild type)” value in the test with mutant ALS protein [2] is 11.3. On W548L mutant ALS, the “resistance imparted by W548L mutation alone” value was “results were similar to those for bispyribac-sodium”. At S627I mutant ALS, the “resistance imparted by S627I mutation alone” value is “results were similar to those for bispyribac-sodium”.
Usually inhibition stands for the share of the control response that was lost under treatment. For the molecule `CC(C)[C@H](N)C(=O)O` [Valine, valine], on ALS isozyme I (setting [3]), the ALS activity was 0.1768 OD525/40 min/0.05 ml and 0.1831 OD525/40 min/0.05 ml; the Inhibition rate is given as 88%. Further, the inhibition at 1000 µM at ALS isozyme I (1 mM Valine, E. coli without plasmid, read-out: Inhibition rate) is 86%. The “inhibition of ALS activity derived from E. coli” value against ALS isozyme I (1 mM valine) is “almost completely inhibited”.
